Measured values as given in US9890133B2 (priority 2011, dated 2018).
Values after ≈ are worked out from the molar mass of the structure shown. Where two headings read alike, the source gives them in different places.

How the values were obtained:
[1] = Cytotoxicity (CC50), MTS-based assay (Experimental Example 2); type: cell-based
Description: (§1) The test compounds were evaluated for anti-picornavirus activity by a multicycle cytopathic effect (CPE) reduction assay. The antiviral activity was initially determined using an MTS [3-(4,5-dimethylthiazol-2-yl)-5-(3-carboxymethoxyphenyl)-2-(4-sulfophenyl-2H-tetrazolium]-based CPE reduction assay.
(§2) In this regard, cells grown to confluence in 96-well plates were infected with 100 50% cell culture infective doses (CCID50) of virus. After an adsorption period of 2 hrs at 37° C., virus was removed and serial dilutions of the compounds were added. […] After removal of the medium, 90 μl of a culture medium and 10 μl of MTS-phenazine methosulfate (Promega, Leiden, The Netherlands) were added to each well. After an incubation period of 2 hrs at 37° C., the optical density (OD) of each well was read at 498 nm in a microplate reader.
CPE values for evaluating cytotoxicity were calculated using the following Mathematic Formula 4: […]
(§3) The 50% effective concentration (EC50) and the 50% cytotoxic concentration (CC50) were defined as the concentrations of compound that offered 50% protection against virus-induced CPE and that killed cells by 50%, respectively, and were calculated using logarithmic interpolation.

Entero 71 = assay: Multicycle CPE reduction assay, Entero 71; type: cell-based; conditions: incubation at 37° C. in RD cells
Description: as §1, §2
(§4) CPE values for evaluating antiviral activity were calculated using the following Mathematic Formula 3: […]
as §3

Polio 1 = assay: organism not typed; type: cell-based; conditions: BGM, read-out: Polio 1 EC50
Coxsackie A16 = assay: Multicycle CPE reduction assay, Coxsackie A16; type: cell-based; conditions: MRC5; incubation at 37° C. in MRC-5 cells
Description: as §1, §2, §4, §3

Rhino 41 = assay: Multicycle CPE reduction assay, Rhino 41; type: cell-based; conditions: incubation at 37° C. in HeLa cells
Description: as §1, §2, §4, §3

Rhino 2 = assay: Multicycle CPE reduction assay, Rhino 2; type: cell-based; conditions: incubation at 37° C. in HeLa cells
Description: as §1, §2, §4, §3

Rhino 29 = assay: Multicycle CPE reduction assay, Rhino 29; type: cell-based; conditions: incubation at 37° C. in HeLa cells
Description: as §1, §2, §4, §3

Rhino 42 = assay: Multicycle CPE reduction assay, Rhino 42; type: cell-based; conditions: incubation at 37° C. in HeLa cells
Description: as §1, §2, §4, §3

Rhino 85 = assay: Multicycle CPE reduction assay, Rhino 85; type: cell-based; conditions: incubation at 37° C. in HeLa cells
Description: as §1, §2, §4, §3

Coxsackie A21 = assay: Multicycle CPE reduction assay, Coxsackie A21; type: cell-based; conditions: MRC5; incubation at 37° C. in MRC-5 cells
Description: as §1, §2, §4, §3

Rhino 39 = assay: Multicycle CPE reduction assay, Rhino 39; type: cell-based; conditions: incubation at 37° C. in HeLa cells
Description: as §1, §2, §4, §3

Rhino 9 = assay: Multicycle CPE reduction assay, Rhino 9; type: cell-based; conditions: incubation at 37° C. in HeLa cells
Description: as §1, §2, §4, §3

Rhino 86 = assay: Multicycle CPE reduction assay, Rhino 86; type: cell-based; conditions: incubation at 37° C. in HeLa cells
Description: as §1, §2, §4, §3

Rhino 63 = assay: Multicycle CPE reduction assay, Rhino 63; type: cell-based; conditions: incubation at 37° C. in HeLa cells
Description: as §1, §2, §4, §3

Polio 3 = assay: organism not typed; type: cell-based; conditions: BGM, read-out: Polio 3 EC50
Rhino 89 = assay: Multicycle CPE reduction assay, Rhino 89; type: cell-based; conditions: HeLa, read-out: Rhino 89 EC50
Description: as §1, §2, §4, §3

Echo 11 = assay: Multicycle CPE reduction assay, Echo 11; type: cell-based; conditions: BGM, read-out: Echo 11 EC50
Description: as §1, §2, §4, §3

Polio 2 = assay: organism not typed; type: cell-based; conditions: BGM, read-out: Polio 2 EC50
Rhino 72 = assay: Multicycle CPE reduction assay, Rhino 72; type: cell-based; conditions: incubation at 37° C. in HeLa cells
Description: as §1, §2, §4, §3

in vitro = conditions: human
Rhino 70 = assay: Multicycle CPE reduction assay, Rhino 70; type: cell-based
Description: as §1, §2, §4, §3

Echo 9 = assay: Multicycle CPE reduction assay, Echo 9; type: cell-based
Description: as §1, §2, §4, §3

Rhino 45 = assay: Multicycle CPE reduction assay, Rhino 45; type: cell-based; conditions: incubation at 37° C. in HeLa cells
Description: as §1, §2, §4, §3

Rhino 15 = assay: Multicycle CPE reduction assay, Rhino 15; type: cell-based; conditions: incubation at 37° C. in HeLa cells
Description: as §1, §2, §4, §3

Poliovirus 3 = assay: microbe, parasite or virus in culture; type: cell-based; conditions: Enterovirus C, read-out: Poliovirus3 EC50
Coxsackie A9 = assay: Multicycle CPE reduction assay, Coxsackie A9; type: cell-based; conditions: incubation at 37° C. in BGM cells
Description: as §1, §2, §4, §3

Rhino 14 = assay: Multicycle CPE reduction assay, Rhino 14; type: cell-based; conditions: incubation at 37° C. in HeLa cells
Description: as §1, §2, §4, §3

## CC(C)c1ccc2c(c1)OC1(O)c3ccccc3C(=O)C21O (stereo not shown) [Example 10, 4b,9b-Dihydroxy-7-isopropyl-4bH-benzo[d]indeno[1,2-b]furan-10(9bH)-one]
[1]
  CC50 at 3 days: > 100000 nM
Entero 71
  EC50: 12 ± 2 nM
Polio 1
  EC50: 750 ± 370 nM
other
  melting point: 195 to 198 °C
Coxsackie A16
  EC50: 90 ± 35 nM
Rhino 41
  EC50: 8800 ± 120 nM
Rhino 2
  EC50: > 50000 nM
Rhino 29
  EC50: > 50000 nM
Rhino 42
  EC50: > 50000 nM
Rhino 85
  EC50: > 50000 nM
Coxsackie A21
  EC50: 1100 ± 580 nM
Rhino 39
  EC50: > 50000 nM
Rhino 9
  EC50: > 50000 nM
Rhino 86
  EC50: 8000 ± 2900 nM
Rhino 63
  EC50: > 50000 nM
Polio 3
  EC50: 1000 ± 570 nM
Rhino 89
  EC50: > 50000 nM
Echo 11
  EC50: 21 nM
Polio 2
  EC50: 360 ± 150 nM
Rhino 72
  EC50: 5300 ± 1200 nM
In vitro
  CC50: 18.4 µg/mL (≈ 62.2 µM)
In vitro; Picorana CC50
  CC50: 14.2 µg/mL (≈ 47.9 µM)
Rhino 70; HeLa, read-out: Rhino 70 EC50, incubation at 37° C. in HeLa cells
  EC50: 2400 ± 360 nM
Echo 9; MRC5, incubation at 37° C. in MRC-5 cells, read-out: Echo 9 EC50
  EC50: 25 ± 5.7 nM
Rhino 45; HeLa
  EC50: 3400 ± 1500 nM
Rhino 15
  EC50: > 50000 nM

## CC(C)c1ccc2c(c1)O[C@@]1(O)c3cccc(N)c3C(=O)[C@@]21O [Example 46, 1-Amino-4b,9b-dihydroxy-7-isopropyl-4bH-benzo[d]indeno[1,2-b]furan-10(9bH)-one]
[1]
  CC50 at 3 days: > 100000 nM
Entero 71
  EC50: 3.1 nM
Polio 1
  EC50: 68 nM
other
  melting point: 180 to 182 °C
Rhino 41
  EC50: 470 ± 36 nM
Rhino 2
  EC50: > 10000 nM
Rhino 29
  EC50: 4600 ± 720 nM
Rhino 85
  EC50: 6200 ± 700 nM
Rhino 39
  EC50: 3000 ± 170 nM
Rhino 9
  EC50: 3500 ± 150 nM
Rhino 63
  EC50: 8500 ± 130 nM
Poliovirus 3
  EC50: < 0.01 µg/mL
Polio 3
  EC50: 43 ± 17 nM
Coxsackie A9
  EC50: 1.7 nM
Rhino 89
  EC50: 340 ± 860 nM
Echo 11
  EC50: 2.3 ± 0.88 nM
Polio 2
  EC50: 18 ± 1.9 nM
In vitro
  CC50: 18.3 µg/mL (≈ 58.9 µM)
In vitro; Picorana CC50
  CC50: 9.42 µg/mL (≈ 30.3 µM)
Rhino 70; HeLa, incubation at 37° C. in HeLa cells, read-out: Rhino 70 EC50
  EC50: ≤ 78 nM
Rhino 70; read-out: Rhino 70 EC50, incubation at 37° C. in HeLa cells, listed as Ex. 46
  EC50: > 78 nM
Echo 9; MRC5, read-out: Echo 9 EC50
  EC50: 3.5 nM
Rhino 14
  EC50: < 10 nM
Rhino 45; HeLa
  EC50: ≤ 78 nM
Rhino 45; listed as Ex. 46
  EC50: < 78 nM
Rhino 15
  EC50: 2800 ± 260 nM
